The structures appear in SMILES notation. In brackets after ≈: the same amount, converted by molar mass. Read-outs that look alike come from different tables or passages of the source.

Here are results for four molecules from patent US6929799B2, “D-alanine racemase mutants of mycobacteria and uses therefore” (priority 2001, dated 2005).

The test system of experiment [1] is M. smegmatis wild type mc2155. The experiment in a line: microbe, parasite or virus in culture. Conditions: for MIC: Mycolicibacterium smegmatis. The class given is cell-based, Mycobacterium smegmatis.
In experiment [2] the test system is M. smegmatis TAM23 alr mutant. The experiment is described as follows: MIC by microplate twofold dilution, alr mutant strain. The class given is cell-based, Mycobacterium smegmatis. To be noted: for MIC: Mycolicibacterium smegmatis, TAM23ALRMUTANT
The test system of a further experiment is M. smegmatis mc2155. Format: cell-based, Mycobacterium smegmatis.
The subject of another experiment is M. smegmatis TAM23. The experiment in a line: Bactericidal action of DCS in broth culture, alr mutant strain. Format: cell-based, Mycobacterium smegmatis.
Experiment [3] has as its target M. smegmatis D-alanine racemase (AlrA) (Mycolicibacterium smegmatis, UniProt P94967). Conditions: Caceres et al., 1997; listed as DCS; cited from earlier work.
For a further experiment, the system named is D-alanine ligase. To be noted: David, 1969; Chacon, Ph.D. thesis; cited from earlier work.
Where [4] appears, read: MC2155, 48 h, read-out: Minimal Inhibitory Concentration (MIC).
Where [5] appears, read: 48 h, read-out: Minimal Inhibitory Concentration (MIC), TAM23 alr mutant, inoculum grown with 50 mM D-alanine, Middlebrook 7H9, 48 h.
Setting [6] is: 48 h, read-out: Minimal Inhibitory Concentration (MIC), TAM23 alr mutant, inoculum grown without D-alanine, Middlebrook 7H9, 48 h.

Sequence of M. smegmatis D-alanine racemase (AlrA) (P94967 whole entry): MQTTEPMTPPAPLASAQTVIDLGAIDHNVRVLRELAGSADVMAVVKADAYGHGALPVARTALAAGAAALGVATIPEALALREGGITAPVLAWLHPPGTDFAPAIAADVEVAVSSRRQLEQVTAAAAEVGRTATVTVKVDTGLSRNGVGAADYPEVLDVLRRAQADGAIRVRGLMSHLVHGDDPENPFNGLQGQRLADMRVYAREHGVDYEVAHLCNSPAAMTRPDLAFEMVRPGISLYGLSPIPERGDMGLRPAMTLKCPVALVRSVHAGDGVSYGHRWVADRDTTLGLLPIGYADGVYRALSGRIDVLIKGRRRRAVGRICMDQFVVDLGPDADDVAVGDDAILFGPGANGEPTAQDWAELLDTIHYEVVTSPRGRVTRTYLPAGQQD

Consider `NCC[C@H](O)C(=O)N[C@@H]1C[C@H](N)[C@@H](O[C@H]2O[C@H](CN)[C@@H](O)[C@H](O)[C@H]2O)[C@H](O)[C@H]1O[C@H]1O[C@H](CO)[C@@H](O)[C@H](N)[C@H]1O` [Amikacin, amikacin], for which the MIC in experiment [1] (setting [4]), in experiment [2] (setting [5]) and in experiment [2] (setting [6]) was 1.56 µg/mL (≈ 2.66 µM) each time.
Consider `N[C@@H]1CON=C1O` [D-Cycloserine, D-cycloserine], for which the “Minimal Inhibitory Concentration (MIC)” value in experiment [1] amounted to 75.0 µg/mL. Besides, the MIC came to 75 µg/mL (≈ 735 µM) in experiment [1] (setting [4]); 1200 µg/mL (≈ 11800 µM) in experiment [1] (MC2155, read-out: MIC with D-alanine added directly into the MIC test cultures); 10.2 µg/mL (≈ 99.9 µM) in experiment [2] (setting [5]); 2.56 µg/mL (≈ 25.1 µM) in experiment [2] (setting [6]); 1200 µg/mL (≈ 11800 µM) in experiment [2] (TAM23, independent of prior growth conditions of the inocula, read-out: MIC with D-alanine added directly into the MIC test cultures). Further, in experiment [2] (inoculum grown with D-alanine, washed), the “MIC for TAM23, times lower than the MIC for the wild-type strain” value is given as “about 7.5 times”. In addition, the “Sensitivity of TAM23 relative to wild type (MIC ratio)” value in experiment [2] (inoculum grown without D-alanine) is given as “about 30 fold”. In addition, the “Bactericidal effect (optical density and viable counts)” value with M. smegmatis mc2155 is on record as “rapid death by lysis”; in the experiment with M. smegmatis TAM23 (DCS at 50 times the MIC (128 μg/ml), broth without D-alanine, up to 72 h), “rapid death by lysis”. Besides, the “Bactericidal drug concentration for mutant strain, fold lower than for wild-type strain” value with M. smegmatis TAM23 (absolute drug concentrations) was found to be 30 fold. Besides, the “Inhibition of D-alanine racemase” value in experiment [3] was “inhibited by DCS in a concentration-dependent manner”. Also, the “Inhibition of D-alanine ligase activity” value with D-alanine ligase was “inhibited”.
Turning to `CC[C@@H](CO)NCCN[C@@H](CC)CO` [Ethambutol, ethambutol], the MIC in experiment [1] (setting [4]), in experiment [2] (setting [5]) and in experiment [2] (setting [6]) was 3.13 µg/mL (≈ 15.3 µM) throughout.
On to `CO[C@H]1/C=C/O[C@@]2(C)Oc3c(C)c(O)c4c(c3C2=O)C2=NC3(CCN(CC(C)C)CC3)NC2=C(NC(=O)/C(C)=C\C=C\[C@H](C)[C@H](O)[C@@H](C)[C@@H](O)[C@@H](C)[C@H](OC(C)=O)[C@@H]1C)C4=O` [Rifabutin, rifabutin], for which the MIC in experiment [1] (setting [4]) is 2 µg/mL (≈ 2.36 µM); in experiment [2] (setting [5]) it was 1 µg/mL (≈ 1.18 µM); in experiment [2] (setting [6]) it was 2 µg/mL (≈ 2.36 µM).
